# What was measured:
# male mice SPF-ICR = experiment: Acute toxicity test; details: mouse, in vivo
# Experimental: To male mice SPF-ICR five weeks old (supplied by Japan Charles River Co.) were intraperitoneally administered PQQ.2Na, PQQ trimethyl ester and PQQ triallyl ester at dosages of 40, 80, 160 and 200 mg per kg of body weight of mouse, respectively and they were bred for 14 days at 25° C. One group consisted of 8 mice. For administration, PQQ.2Na was dissolved in physiological saline and PQQ trimethyl ester and PQQ triallyl ester were suspended in 1%Tween 80-containing physiological saline, respectively.
# mice [1] = experiment: Kidney toxicity determined by blood examination; type: in vivo, mouse; details: for Creatinine in serum / Urea nitrogen in serum / Glucose in serum: average of eight mice; for Creatinine in serum: None: 0.4; for Urea nitrogen in serum: None: 20; for Glucose in serum: None: 78
# Experimental: (3) Kidney toxicity determined by blood examination:
# (§1) After lapse of one day from the administration, the mice were fasted (only water was given) and then after 18 hours, blood was collected and serum was obtained therefrom. Glucose, urea nitrogen and creatinine in the serum were examined by clinical examination reagent (trademark: FUJI DRYCHEMSLIDE manufactured by Fuji Photo Film Co., Ltd.). The results are shown by average value of eight mice in Table 3.
# [2] = test system: carbon tetrachloride (CCl4)-induced liver diseases; experiment: Pharmacological activity (1) on carbon tetrachloride (CCl4)-induced liver diseases; type: in vivo, SD rats; details: i.p. 5 mg/kg rat twice, CCl4 1 ml/kg rat, 24 hours, average of five rats; for Total bilirubin in serum: CCl4 alone 1.2; for GPT in serum: CCl4 alone 818; for GOT in serum: CCl4 alone 3308
# Experimental: Pharmacological activity (1) of PQQ triesters on carbon tetrachloride (CCl4)-induced liver diseases:
# Twenty SD rats (male, 7 weeks old, body weight: about 220 g; supplied by Japan Charles River Co.) were divided to four groups (A-D) each consisting of five rats. All rats were fasted for 16 hours and 1.1 ml of a solution containing 1 mg/ml of PQQ trimethyl ester was intraperitoneally administered to the rats of group C and 1.1 ml of a solution containing 1 mg/ml of PQQ triallyl ester was intraperitoneally administered to the rats of group D and after lapse of 40 minutes, the same PQQ triesters in the same dose as above was intraperitoneally administered, respectively. For administration, the PQQ triesters were suspended in physiological saline containing 1 % Tween 80, 1.1 ml of physiological saline was intraperitoneally administered to the rats of group B in place of PQQ triesters. Furthermore, after 20 minutes, 2.2 ml of 10 vol% carbon tetrachloride (solution in olive oil) was administered to stomach of the rats of groups B-D. Neither PQQ triesters nor carbon tetrachloride were administered to the rats of group A.
# (§2) After 24 hours from administration of carbon tetrachloride, blood was collected from abdominal main artery and serum was obtained by centrifugation therefrom.
# GPT, GOT and amount of total bilirubin in the serum were measured by clinical examination reagent (trademark: FUJI DRYCHEMSLIDE manufactured by Fuji Photo Film Co., Ltd.). The results are shown in Table 5 by average value of five rats.
# [3] = test system: carbon tetrachloride (CCl4)-induced liver diseases; experiment: Pharmacological activity (2) on carbon tetrachloride (CCl4)-induced liver diseases; type: in vivo, SD rats; details: CCl4 1 ml/kg rat i.p., 24 hours, average of five rats; for Total bilirubin in serum: CCl4 alone 0.9; for GPT in serum: CCl4 alone 949; for GOT in serum: CCl4 alone 1970
# Experimental: Pharmacological activity (2) of PQQ triesters on carbon tetrachloride (CCl4)-induced liver diseases:
# Forty SD rats (male, 7 weeks old, body weight: about 260 g; supplied by Japan Charles River Co.) were divided to eight groups (A-H) each consisting of five rats. All rats were fasted for 18 hours and 1.3 ml of a solution containing 2 mg/ml of PQQ trimethyl ester was intraperitoneally administered to the rats of group C, 1.3 ml of a solution containing 10 mg/ml of PQQ trimethyl ester was intraperitoneally administered to the rats of group D, 1.3 ml of a solution containing 20 mg/ml of PQQ trimethyl ester was intraperitoneally administered to the rats of group E, 1.3 ml of a solution containing 2 mg/ml of PQQ triallyl ester was intraperitoneally administered to the rats of group F, 1.3 ml of a solution containing […] was intraperitoneally administered to the rats of group G, and 1.3 ml of a solution containing 20 mg/ml of PQQ triallyl ester was intraperitoneally administered to the rats of group H and furthermore, after lapse of 50 minutes, the same PQQ triesters in the same doses as above were intraperitoneally administered to respective rats. In these cases, the PQQ triesters were suspended in physiological saline containing 1% Tween 80 and administered to the rats. 1.3 ml of physiological saline was intraperitoneally administered to the rats of group B in place of PQQ triesters. […] Neither PQQ triesters nor carbon tetrachloride were administered to the rats of group A.
# as §2
# GPT, […] and amount of total bilirubin in the serum were measured by clinical examination reagent (trademark: FUJI DRYCHEMSLIDE manufactured by Fuji Photo Film Co., Ltd.). The results are shown in Table 6 by average value of five rats.
# Solubility = type: physicochemical
# [4] = bovine, not told, 960 min
# Experimental: Each compound dissolved in 10 mM HEPES buffer (containing 1%DMSO in the case of PQQ triesters) was put in an apparatus for measurement of membrane permeation constant and left to stand for 16 hours at 35 ° C. and then amount of the compound which migrated was measured by ultraviolet absorption (243 nm for PQQ 2Na and 255 nm for PQQ triester) to obtain membrane permeation constant.
# mice [5] = experiment: Kidney toxicity (2) determined by blood examination; type: in vivo, mouse; details: average of eight mice; for Creatinine in serum: None: 0.8; for Urea nitrogen in serum: None: 23; for Glucose in serum: None: 93
# Experimental: (4) Kidney toxicity (2) determined by blood examination:
# The dosage per kg of body weight of mouse was 150, 400 mg and 100 mg.
# as §1, with “then,” for “then”, “15” for “18”, “(trademark :” for “(trademark:”, “4.” for “3.”
SMILES,mice died (male mice SPF-ICR),Total bilirubin in serum [2],GPT in serum [2],GOT in serum [2],Total bilirubin in serum ([3]; i.p. 10 mg/kg rat twice),GPT in serum ([3]; i.p. 10 mg/kg rat twice),GOT in serum ([3]; i.p. 10 mg/kg rat twice),Total bilirubin in serum ([3]; i.p. 50 mg/kg rat twice),GPT in serum ([3]; i.p. 50 mg/kg rat twice),GOT in serum ([3]; i.p. 50 mg/kg rat twice),Total bilirubin in serum ([3]; i.p. 100 mg/kg rat twice),GPT in serum ([3]; i.p. 100 mg/kg rat twice),GOT in serum ([3]; i.p. 100 mg/kg rat twice),Membrane permeation constant [4],membrane permeation constant relative to that of PQQ.2Na [4],other results
C=CCOC(=O)c1cc(C(=O)OCC=C)c2c(n1)C(=O)C(=O)c1cc(C(=O)OCC=C)[nH]c1-2 [PQQ triallyl ester],no mice died,0.8 mg/dL,371 U/l,2150 U/l,0.7 mg/dL,323 U/l,1186 U/l,0.7 mg/dL,583 U/l,1270 U/l,0.8 mg/dL,576 U/l,1563 U/l,2.42 ± 0.60 10^-7 cm^2 · sec^-1,3-4 times,"Creatinine in serum (mice [1]; i.p. 40 mg/kg): 0.3 mg/dL; Urea nitrogen in serum (mice [1]; i.p. 40 mg/kg): 12 mg/dL; Glucose in serum (mice [1]; i.p. 40 mg/kg): 42 mg/dL; Creatinine in serum (mice [1]; i.p. 80 mg/kg): 0.2 mg/dL; Urea nitrogen in serum (mice [1]; i.p. 80 mg/kg): 12 mg/dL; Glucose in serum (mice [1]; i.p. 80 mg/kg): 47 mg/dL; Creatinine in serum (mice [1]; i.p. 160 mg/kg): 0.2 mg/dL; Urea nitrogen in serum (mice [1]; i.p. 160 mg/kg): 10 mg/dL; Glucose in serum (mice [1]; i.p. 160 mg/kg): 59 mg/dL; Creatinine in serum (mice [1]; i.p. 200 mg/kg): 0.1 mg/dL; Urea nitrogen in serum (mice [1]; i.p. 200 mg/kg): 9 mg/dL; Glucose in serum (mice [1]; i.p. 200 mg/kg): 64 mg/dL; creatinine in serum (in words) (mice [1]; i.p., versus no compound): nearly the same; glucose in serum (in words) (mice [1]; i.p., versus no compound): nearly the same; urea nitrogen in serum (in words) (mice [1]; i.p., versus no compound): nearly the same; kidney toxicity (in words) (mice [1]; mouse, in vivo, ip): no kidney toxicity was observed; Solubility (Solubility; acetone): Very soluble; Solubility (Solubility; ethanol): Very soluble; Solubility (Solubility; methanol): Very soluble; Solubility (Solubility; water): hardly soluble"
COC(=O)c1cc(C(=O)OC)c2c(n1)C(=O)C(=O)c1cc(C(=O)OC)[nH]c1-2 [PQQ trimethyl ester],no mice died,0.7 mg/dL,505 U/l,2193 U/l,0.9 mg/dL,479 U/l,1263 U/l,0.7 mg/dL,645 U/l,1543 U/l,0.8 mg/dL,676 U/l,1605 U/l,1.41 ± 0.48 10^-7 cm^2 · sec^-1,about 2 times,Creatinine in serum (mice [5]; 150 mg/kg): 0.9 mg/dL; Urea nitrogen in serum (mice [5]; 150 mg/kg): 22 mg/dL; Glucose in serum (mice [5]; 150 mg/kg): 72 mg/dL; Creatinine in serum (mice [5]; 400 mg/kg): 0.7 mg/dL; Urea nitrogen in serum (mice [5]; 400 mg/kg): 20 mg/dL; Glucose in serum (mice [5]; 400 mg/kg): 55 mg/dL; Creatinine in serum (mice [5]; 1000 mg/kg): 0.7 mg/dL; Urea nitrogen in serum (mice [5]; 1000 mg/kg): 17 mg/dL; Glucose in serum (mice [5]; 1000 mg/kg): 60 mg/dL

# Source: patent US5061711A, “Method of curing liver diseases by using pyrrolo quinoline quinone triesters and novel pyrrolo quinoline quinone triesters” (Mitsubishi Gas Chemical Company, Inc., priority 1989, dated 1991)
